PMC5218480 (PLoS ONE, 2017)

Test system: MV-4-11 cells
Assay: Gene expression microarray analysis (Affymetrix PrimeView) and GSEA
Type: cell-based, human
Parameters: RFU PODN (11730768_x_at) / Fold change /veh PODN (11730768_x_at) / RFU LINC00158 (11744669_a_at) / Fold change /veh LINC00158 (11744669_a_at) / RFU DUSP10 (11751237_a_at) / Fold change /veh DUSP10 (11751237_a_at) / RFU ID3 (11757404_x_at) / Fold change /veh ID3 (11757404_x_at) / RFU PLEKHG5 (11737974_s_at) / Fold change /veh PLEKHG5 (11737974_s_at) / RFU LRRC4B (11730491_at) / Fold change /veh LRRC4B (11730491_at) / RFU GIMAP4 (11747438_a_at) / Fold change /veh GIMAP4 (11747438_a_at) / RFU KRT8 (11758183_x_at) / Fold change /veh KRT8 (11758183_x_at) / RFU CNN1 (11734310_a_at) / Fold change /veh CNN1 (11734310_a_at) / RFU VPS37D (11726825_at) / Fold change /veh VPS37D (11726825_at) / RFU C10orf10 (11716522_x_at) / Fold change /veh C10orf10 (11716522_x_at) / RFU KIR2DL2 /// KIR2DL4 /// KIR2DL5A /// KIR2DL5B /// KIR2DS1 /// KIR2DS2 /// KIR2DS3 /// KIR2DS4 /// KIR3DL3 /// KIR3DL3 /// KIR3DS1 (11738374_at) / Fold change /veh KIR2DL2 /// KIR2DL4 /// KIR2DL5A /// KIR2DL5B /// KIR2DS1 /// KIR2DS2 /// KIR2DS3 /// KIR2DS4 /// KIR3DL3 /// KIR3DL3 /// KIR3DS1 (11738374_at) / RFU C1QL1 (11718748_at) / Fold change /veh C1QL1 (11718748_at) / RFU TMPRSS4 (11747572_a_at) / Fold change /veh TMPRSS4 (11747572_a_at) / RFU HAMP (11756126_x_at) / Fold change /veh HAMP (11756126_x_at) / RFU RNFT2 (11725882_a_at) / Fold change /veh RNFT2 (11725882_a_at) / RFU NR4A2 (11747474_a_at) / Fold change /veh NR4A2 (11747474_a_at) / RFU ABCC12 (11746883_a_at) / Fold change /veh ABCC12 (11746883_a_at) / RFU TMEM136 (11760407_x_at) / Fold change /veh TMEM136 (11760407_x_at) / RFU CLDN22 /// WWC2 (11732394_at) / Fold change /veh CLDN22 /// WWC2 (11732394_at) / RFU HLA-DPB1 (11760878_x_at) / Fold change /veh HLA-DPB1 (11760878_x_at) / RFU SPINT1 (11716480_a_at) / Fold change /veh SPINT1 (11716480_a_at) / RFU GAP43 (11754022_s_at) / Fold change /veh GAP43 (11754022_s_at) / RFU A4GNT (11735810_at) / Fold change /veh A4GNT (11735810_at) / RFU PRB3 (11715151_x_at) / Fold change /veh PRB3 (11715151_x_at) / RFU TUBB4B (11761932_at) / Fold change /veh TUBB4B (11761932_at) / RFU CAPN14 (11732068_a_at) / Fold change /veh CAPN14 (11732068_a_at) / RFU TMCC2 (11721928_a_at) / Fold change /veh TMCC2 (11721928_a_at) / RFU IRGQ (11745062_a_at) / Fold change /veh IRGQ (11745062_a_at) / RFU FAM174B (11720279_a_at) / Fold change /veh FAM174B (11720279_a_at) / RFU TMPRSS4 (11748680_a_at) / Fold change /veh TMPRSS4 (11748680_a_at) / RFU FAM212B (11763350_a_at) / Fold change /veh FAM212B (11763350_a_at) / RFU PLEKHG5 (11743358_a_at) / Fold change /veh PLEKHG5 (11743358_a_at) / RFU ZSCAN30 (11745921_a_at) / Fold change /veh ZSCAN30 (11745921_a_at) / RFU CMKLR1 (11741424_a_at) / Fold change /veh CMKLR1 (11741424_a_at) / RFU LOC101060620 /// MAPK8IP1 (11723275_at) / Fold change /veh LOC101060620 /// MAPK8IP1 (11723275_at) / RFU SPTSSB (11747773_x_at) / Fold change /veh SPTSSB (11747773_x_at) / RFU PRSS12 (11739890_at) / Fold change /veh PRSS12 (11739890_at) / RFU BIN1 (11741810_x_at) / Fold change /veh BIN1 (11741810_x_at) / RFU WNT11 (11732464_a_at) / Fold change /veh WNT11 (11732464_a_at) / RFU C10orf10 (11716521_a_at) / Fold change /veh C10orf10 (11716521_a_at) / RFU C5orf56 (11738089_at) / Fold change /veh C5orf56 (11738089_at) / RFU CYB561 (11721691_x_at) / Fold change /veh CYB561 (11721691_x_at) / RFU ANKRD19P (11752326_a_at) / Fold change /veh ANKRD19P (11752326_a_at) / RFU OR2T12 /// OR2T33 /// OR2T8 (11738714_s_at) / Fold change /veh OR2T12 /// OR2T33 /// OR2T8 (11738714_s_at) / RFU VCAN (11748164_a_at) / Fold change /veh VCAN (11748164_a_at) / RFU JSRP1 (11732532_at) / Fold change /veh JSRP1 (11732532_at) / RFU KRTAP10-11 (11738290_x_at) / Fold change /veh KRTAP10-11 (11738290_x_at) / RFU MYO3A (11730013_a_at) / Fold change /veh MYO3A (11730013_a_at) / RFU EBF3 (11725865_a_at) / Fold change /veh EBF3 (11725865_a_at) / RFU CAMK2N1 (11719241_x_at) / Fold change /veh CAMK2N1 (11719241_x_at) / RFU C5orf56 (11738088_a_at) / Fold change /veh C5orf56 (11738088_a_at) / RFU OLFML3 (11715873_a_at) / Fold change /veh OLFML3 (11715873_a_at) / RFU LOC100653217 /// NTM (11731650_a_at) / Fold change /veh LOC100653217 /// NTM (11731650_a_at) / RFU MAPK11 (11762145_a_at) / Fold change /veh MAPK11 (11762145_a_at) / RFU FIZ1 (11724087_x_at) / Fold change /veh FIZ1 (11724087_x_at) / RFU OASL (11726364_x_at) / Fold change /veh OASL (11726364_x_at) / RFU SOX15 (11748057_x_at) / Fold change /veh SOX15 (11748057_x_at) / RFU CD79A (11719716_a_at) / Fold change /veh CD79A (11719716_a_at) / RFU HIST1H1D (11736915_at) / Fold change /veh HIST1H1D (11736915_at) / RFU CASKIN2 (11723855_a_at) / Fold change /veh CASKIN2 (11723855_a_at) / RFU LOC730098 (11760151_x_at) / Fold change /veh LOC730098 (11760151_x_at) / RFU OR4N2 (11742367_at) / Fold change /veh OR4N2 (11742367_at) / RFU PRRT2 (11749266_a_at) / Fold change /veh PRRT2 (11749266_a_at) / RFU SNX32 (11753110_a_at) / Fold change /veh SNX32 (11753110_a_at) / RFU CDHR5 (11726645_a_at) / Fold change /veh CDHR5 (11726645_a_at) / RFU RCAN1 (11760418_a_at) / Fold change /veh RCAN1 (11760418_a_at) / RFU FAM167A (11723789_a_at) / Fold change /veh FAM167A (11723789_a_at) / RFU FAM26E (11764081_at) / Fold change /veh FAM26E (11764081_at) / RFU ISYNA1 (11749810_s_at) / Fold change /veh ISYNA1 (11749810_s_at) / RFU ACY1 (11761880_at) / Fold change /veh ACY1 (11761880_at) / RFU 11764098_at / Fold change /veh 11764098_at / RFU SAMD14 (11745864_x_at) / Fold change /veh SAMD14 (11745864_x_at) / RFU NPB (11741838_a_at) / Fold change /veh NPB (11741838_a_at) / RFU TMPRSS6 (11731388_a_at) / Fold change /veh TMPRSS6 (11731388_a_at) / RFU KRTAP10-2 (11738614_at) / Fold change /veh KRTAP10-2 (11738614_at) / RFU ARHGAP8 /// PRR5-ARHGAP8 (11727945_x_at) / Fold change /veh ARHGAP8 /// PRR5-ARHGAP8 (11727945_x_at) / RFU KRTAP5-7 /// NADSYN1 (11734609_at) / Fold change /veh KRTAP5-7 /// NADSYN1 (11734609_at) / RFU RASL12 (11751679_a_at) / Fold change /veh RASL12 (11751679_a_at) / RFU CDKN2B (11736163_a_at) / Fold change /veh CDKN2B (11736163_a_at) / RFU PRF1 (11729649_at) / Fold change /veh PRF1 (11729649_at) / RFU, ZNF638 /// ZNF638-IT1 / Fold change vs veh, ZNF638 /// ZNF638-IT1 / RFU, PANK3 / Fold change vs veh, PANK3 / RFU, SH3YL1 / Fold change vs veh, SH3YL1 / RFU, ZEB2 / Fold change vs veh, ZEB2 / RFU, NRIP1 / Fold change vs veh, NRIP1 / RFU, PTTG1IP / Fold change vs veh, PTTG1IP / RFU, CAPN2 / Fold change vs veh, CAPN2 / RFU, MED14 / Fold change vs veh, MED14 / RFU, SNORA58 / Fold change vs veh, SNORA58 / RFU, C1orf63 / Fold change vs veh, C1orf63 / RFU, LRRFIP1 / Fold change vs veh, LRRFIP1 / RFU, NDUFAF7 / Fold change vs veh, NDUFAF7 / RFU, SLC12A2 / Fold change vs veh, SLC12A2 / RFU, IBTK / Fold change vs veh, IBTK / RFU, ESF1 / Fold change vs veh, ESF1 / Fold change vs veh, TMEM50B / RFU, TAOK1 / Fold change vs veh, TAOK1 / RFU, ACBD3 / Fold change vs veh, ACBD3 / RFU, TMA16 / Fold change vs veh, TMA16 / RFU, RWDD3 / Fold change vs veh, RWDD3 / RFU, BCAT1 / Fold change vs veh, BCAT1 / RFU, EDEM3 / Fold change vs veh, EDEM3 / RFU, TMEM33 / Fold change vs veh, TMEM33 / RFU, WDR75 / Fold change vs veh, WDR75 / RFU, AHCTF1 / Fold change vs veh, AHCTF1 / RFU, TFRC / Fold change vs veh, TFRC / RFU, ZDHHC17 / Fold change vs veh, ZDHHC17 / RFU, NOM1 / Fold change vs veh, NOM1 / RFU, ARL8B / Fold change vs veh, ARL8B / RFU, ZBTB11 / Fold change vs veh, ZBTB11 / RFU, TAMM41 / Fold change vs veh, TAMM41 / RFU, KIAA1704 /// LOC100996395 / Fold change vs veh, KIAA1704 /// LOC100996395 / RFU, ING1 / Fold change vs veh, ING1 / RFU, TRMT61B / Fold change vs veh, TRMT61B / RFU, FUBP3 / Fold change vs veh, FUBP3 / RFU, TP53 / Fold change vs veh, TP53 / RFU, TNKS2 / Fold change vs veh, TNKS2 / RFU, ZFP14 / Fold change vs veh, ZFP14 / RFU, ACTR2 / Fold change vs veh, ACTR2 / RFU, PPP3R1 / Fold change vs veh, PPP3R1 / RFU, PIK3R1 / Fold change vs veh, PIK3R1 / RFU, HNRNPA1 / Fold change vs veh, HNRNPA1 / RFU, RNF170 / Fold change vs veh, RNF170 / RFU, ZNF28 / Fold change vs veh, ZNF28 / RFU, RNGTT / Fold change vs veh, RNGTT / RFU, OGT / Fold change vs veh, OGT / RFU, BRD1 / Fold change vs veh, BRD1 / RFU, MARS / Fold change vs veh, MARS / RFU, ZNF655 / Fold change vs veh, ZNF655 / RFU, FAHD1 / Fold change vs veh, FAHD1 / RFU, BDP1 / Fold change vs veh, BDP1 / RFU, LRRCC1 / Fold change vs veh, LRRCC1 / RFU, ARID1A / Fold change vs veh, ARID1A / RFU, ZNF146 / Fold change vs veh, ZNF146 / RFU, ZNF330 / Fold change vs veh, ZNF330 / RFU, GPN3 / Fold change vs veh, GPN3 / RFU, C9orf123 / Fold change vs veh, C9orf123 / RFU, N4BP2L2 / Fold change vs veh, N4BP2L2 / RFU, ARFIP1 / Fold change vs veh, ARFIP1 / RFU, FAM179B / Fold change vs veh, FAM179B / RFU, BCL10 / Fold change vs veh, BCL10 / RFU, UHRF1BP1L / Fold change vs veh, UHRF1BP1L / RFU, BET1 / Fold change vs veh, BET1 / RFU, CNOT2 / Fold change vs veh, CNOT2 / RFU, ZNF268 / Fold change vs veh, ZNF268 / Fold change vs veh, ZNF507 / RFU, DGCR2 / Fold change vs veh, DGCR2 / RFU, WDSUB1 / Fold change vs veh, WDSUB1 / Fold change vs veh, HSP90B1 /// MIR3652 / RFU, ADSS / Fold change vs veh, ADSS / RFU, GK / Fold change vs veh, GK / RFU, ZNF148 / Fold change vs veh, ZNF148 / RFU, TAF9 / Fold change vs veh, TAF9 / RFU, SLC1A5 / Fold change vs veh, SLC1A5 / RFU, SLMO2 / Fold change vs veh, SLMO2 / RFU, ABCC4 / Fold change vs veh, ABCC4 / RFU, LOC101060439 /// RAP1B / Fold change vs veh, LOC101060439 /// RAP1B / RFU, RFX7 / Fold change vs veh, RFX7 / RFU, GTPBP10 / Fold change vs veh, GTPBP10 / RFU, CNEP1R1 / Fold change vs veh, CNEP1R1 / RFU, BIVM-ERCC5 /// ERCC5 / Fold change vs veh, BIVM-ERCC5 /// ERCC5 / RFU, ILF3 / Fold change vs veh, ILF3 / RFU 11762660_at / Fold change /veh 11762660_at / RFU VCAN (11757783_s_at) / Fold change /veh VCAN (11757783_s_at) / RFU DDX43 (11728927_at) / Fold change /veh DDX43 (11728927_at) / RFU KRT8 (11758188_x_at) / Fold change /veh KRT8 (11758188_x_at) / RFU NKD1 (11759106_at) / Fold change /veh NKD1 (11759106_at) / RFU SRD5A1 (11742802_a_at) / Fold change /veh SRD5A1 (11742802_a_at) / RFU TPSAB1 /// TPSB2 (11721975_s_at) / Fold change /veh TPSAB1 /// TPSB2 (11721975_s_at) / RFU GSTM3 (11746129_a_at) / Fold change /veh GSTM3 (11746129_a_at) / RFU IL23R (11737362_x_at) / Fold change /veh IL23R (11737362_x_at) / RFU TMEM51 (11727254_a_at) / Fold change /veh TMEM51 (11727254_a_at) / RFU PIWIL2 (11732686_x_at) / Fold change /veh PIWIL2 (11732686_x_at) / RFU ORM1 (11744905_x_at) / Fold change /veh ORM1 (11744905_x_at) / RFU CCDC152 (11743942_at) / Fold change /veh CCDC152 (11743942_at) / RFU ECM1 (11717891_a_at) / Fold change /veh ECM1 (11717891_a_at) / RFU IL23R (11748794_a_at) / Fold change /veh IL23R (11748794_a_at) / RFU TNFAIP8L3 (11732012_x_at) / Fold change /veh TNFAIP8L3 (11732012_x_at) / RFU MBOAT4 (11741988_at) / Fold change /veh MBOAT4 (11741988_at) / RFU 11764193_at / Fold change /veh 11764193_at / RFU TMEM53 (11763286_at) / Fold change /veh TMEM53 (11763286_at) / RFU MAGEB2 (11727129_at) / Fold change /veh MAGEB2 (11727129_at) / RFU TMEM200A (11744735_a_at) / Fold change /veh TMEM200A (11744735_a_at) / RFU CCDC152 (11751479_a_at) / Fold change /veh CCDC152 (11751479_a_at) / RFU FAM211A (11726209_a_at) / Fold change /veh FAM211A (11726209_a_at) / RFU RGS16 (11746705_a_at) / Fold change /veh RGS16 (11746705_a_at) / RFU VCAN (11755009_s_at) / Fold change /veh VCAN (11755009_s_at) / RFU RHOB (11743442_s_at) / Fold change /veh RHOB (11743442_s_at) / RFU RGS16 (11720943_a_at) / Fold change /veh RGS16 (11720943_a_at) / RFU RGS16 (11720944_at) / Fold change /veh RGS16 (11720944_at) / RFU, VPS4B / Fold change vs veh, VPS4B / RFU, CREB1 / Fold change vs veh, CREB1 / RFU, DNAJC13 / Fold change vs veh, DNAJC13 / RFU, GNAQ / Fold change vs veh, GNAQ / RFU, CDK5R1 / Fold change vs veh, CDK5R1 / RFU, ZRANB3 / Fold change vs veh, ZRANB3 / RFU, CUL4A / Fold change vs veh, CUL4A / RFU, CCNY / Fold change vs veh, CCNY / RFU, UFL1 / Fold change vs veh, UFL1 / RFU, COG3 / Fold change vs veh, COG3 / RFU, DIAPH2 / Fold change vs veh, DIAPH2 / RFU, SKA2 / Fold change vs veh, SKA2 / RFU, AFF3 / Fold change vs veh, AFF3 / RFU, LMF1 / Fold change vs veh, LMF1 / RFU, IPO11 / Fold change vs veh, IPO11 / RFU, DFFB / Fold change vs veh, DFFB / RFU, FOXP1 / Fold change vs veh, FOXP1 / RFU, CARD8 / Fold change vs veh, CARD8 / RFU, STRN3 / Fold change vs veh, STRN3 / RFU, ADK / Fold change vs veh, ADK / RFU, RASSF2 / Fold change vs veh, RASSF2 / RFU, WIPF1 / Fold change vs veh, WIPF1 / RFU, LARP1B / Fold change vs veh, LARP1B / RFU, RASA1 / Fold change vs veh, RASA1 / RFU, RB1 / Fold change vs veh, RB1 / RFU, PPFIA1 / Fold change vs veh, PPFIA1 / RFU, MAT2A / Fold change vs veh, MAT2A / RFU, CCT5 / Fold change vs veh, CCT5 / RFU, WDR92 / Fold change vs veh, WDR92 / RFU, CUX1 / Fold change vs veh, CUX1 / RFU, TTC7A / Fold change vs veh, TTC7A / RFU, TMEM135 / Fold change vs veh, TMEM135 / RFU, DEPTOR / Fold change vs veh, DEPTOR / RFU, CPM / Fold change vs veh, CPM / RFU, DNAJB6 / Fold change vs veh, DNAJB6 / RFU, CACNA2D3 / Fold change vs veh, CACNA2D3 / RFU, DTX4 / Fold change vs veh, DTX4 / RFU, TFCP2 / Fold change vs veh, TFCP2 / RFU, GMCL1 /// GMCL1P1 / Fold change vs veh, GMCL1 /// GMCL1P1 / RFU, AEBP2 / Fold change vs veh, AEBP2 / RFU, SNHG1 /// SNORD22 /// SNORD25 /// SNORD26 /// SNORD27 /// SNORD28 /// SNORD29 /// SNORD31 / Fold change vs veh, SNHG1 /// SNORD22 /// SNORD25 /// SNORD26 /// SNORD27 /// SNORD28 /// SNORD29 /// SNORD31 / Fold change (Aza/veh), C12orf56 (ProbeSet 11735607_a_at) / Fold change (ACY-1035/veh), C12orf56 (ProbeSet 11735607_a_at) / Fold change (Aza/veh), FGFR1OP (ProbeSet 11751329_s_at) / Fold change (ACY-1035/veh), FGFR1OP (ProbeSet 11751329_s_at) / Fold change (Aza/veh), VPS36 (ProbeSet 11739960_a_at) / Fold change (ACY-1035/veh), VPS36 (ProbeSet 11739960_a_at) / RFU SYPL1 (11715823_x_at) / Fold change /veh SYPL1 (11715823_x_at) / RFU IGFBP7 (11715501_s_at) / Fold change /veh IGFBP7 (11715501_s_at) / RFU REEP3 (11722064_at) / Fold change /veh REEP3 (11722064_at) / RFU IGLL1 (11728026_x_at) / Fold change /veh IGLL1 (11728026_x_at): dose or concentration left out as unconfirmed
Details: ProbeSet 11730252_s_at; LIST B

Nc1ccc(-c2cccs2)cc1NC(=O)c1ccc2c(c1)cc(C1CC1)n2CCN1CCOCC1 [ACY-1035]
RFU, AHCTF1: 224.50 RFU
